Reference: patent publication US20240269139A1, “COMPOUNDS FOR TARGETED PROTEIN DEGRADATION OF KINASES” (DANA-FARBER CANCER INSTITUTE, INC., priority 2020, published 2024)
Where two headings read alike, the source gives them in different places.

How the values were obtained:
Format in all cases: cell-based
[1] = molecular target: protein kinases (human kinome) (Homo sapiens, UniProt P30291); conditions: for logFC of WEE1: WEE1 P30291-1
[2] = molecular target: protein kinases (human kinome) (Homo sapiens, UniProt P16591); conditions: for logFC of FER (P16591-1): down; for logFC of FER: FER P16591-1
Chain of protein kinases (human kinome) (Homo sapiens, UniProt P16591) (P16591 whole entry): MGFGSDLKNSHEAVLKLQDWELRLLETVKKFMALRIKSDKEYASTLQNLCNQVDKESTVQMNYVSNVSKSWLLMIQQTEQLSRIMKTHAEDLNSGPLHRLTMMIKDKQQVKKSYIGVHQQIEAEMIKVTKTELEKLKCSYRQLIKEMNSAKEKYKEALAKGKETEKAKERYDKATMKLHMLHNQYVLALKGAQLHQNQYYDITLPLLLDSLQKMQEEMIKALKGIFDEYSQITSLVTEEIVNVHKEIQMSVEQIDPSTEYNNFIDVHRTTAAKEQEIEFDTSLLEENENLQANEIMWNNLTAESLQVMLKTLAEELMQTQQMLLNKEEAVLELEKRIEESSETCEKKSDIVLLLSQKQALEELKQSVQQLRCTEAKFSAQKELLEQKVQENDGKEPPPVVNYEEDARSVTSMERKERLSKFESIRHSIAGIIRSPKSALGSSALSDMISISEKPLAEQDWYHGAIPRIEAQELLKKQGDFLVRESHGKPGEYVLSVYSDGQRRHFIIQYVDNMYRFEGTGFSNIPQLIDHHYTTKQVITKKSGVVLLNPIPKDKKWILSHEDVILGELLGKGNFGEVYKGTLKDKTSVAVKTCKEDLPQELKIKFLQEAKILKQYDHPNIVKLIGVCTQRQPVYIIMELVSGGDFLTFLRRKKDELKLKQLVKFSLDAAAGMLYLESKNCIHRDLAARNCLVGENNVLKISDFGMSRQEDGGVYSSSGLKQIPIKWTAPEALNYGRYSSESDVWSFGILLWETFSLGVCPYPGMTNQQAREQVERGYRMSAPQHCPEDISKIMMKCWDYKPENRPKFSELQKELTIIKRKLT

[3] = molecular target: protein kinases (human kinome) (Homo sapiens, UniProt Q2M2I8)
Chain of protein kinases (human kinome) (Homo sapiens, UniProt Q2M2I8) (Q2M2I8 whole entry): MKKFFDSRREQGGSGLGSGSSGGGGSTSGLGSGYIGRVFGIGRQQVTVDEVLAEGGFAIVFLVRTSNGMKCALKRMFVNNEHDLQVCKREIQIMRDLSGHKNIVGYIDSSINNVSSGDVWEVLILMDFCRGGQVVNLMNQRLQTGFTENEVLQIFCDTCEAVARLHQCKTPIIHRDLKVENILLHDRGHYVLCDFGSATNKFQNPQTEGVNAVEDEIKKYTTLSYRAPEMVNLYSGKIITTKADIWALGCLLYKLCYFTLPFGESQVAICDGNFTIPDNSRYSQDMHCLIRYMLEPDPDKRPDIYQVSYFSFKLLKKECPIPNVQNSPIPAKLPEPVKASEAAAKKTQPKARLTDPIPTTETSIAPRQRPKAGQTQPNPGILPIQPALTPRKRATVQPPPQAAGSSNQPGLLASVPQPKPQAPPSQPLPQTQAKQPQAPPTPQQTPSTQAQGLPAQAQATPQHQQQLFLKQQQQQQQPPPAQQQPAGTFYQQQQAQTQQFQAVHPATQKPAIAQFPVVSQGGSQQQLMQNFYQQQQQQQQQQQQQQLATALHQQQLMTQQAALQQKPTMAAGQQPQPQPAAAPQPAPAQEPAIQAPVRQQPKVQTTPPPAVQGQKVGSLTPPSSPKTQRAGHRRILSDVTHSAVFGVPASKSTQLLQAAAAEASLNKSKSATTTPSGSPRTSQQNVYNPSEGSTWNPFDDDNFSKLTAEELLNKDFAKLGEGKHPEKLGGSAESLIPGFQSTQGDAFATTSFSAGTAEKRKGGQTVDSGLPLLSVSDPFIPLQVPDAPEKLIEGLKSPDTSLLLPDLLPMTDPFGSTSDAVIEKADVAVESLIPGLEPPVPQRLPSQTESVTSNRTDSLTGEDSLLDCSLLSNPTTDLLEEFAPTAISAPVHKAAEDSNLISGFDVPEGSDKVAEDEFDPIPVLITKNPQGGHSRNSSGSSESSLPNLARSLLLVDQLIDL

[4] = molecular target: protein kinases (human kinome) (Homo sapiens, UniProt P11802)
Chain of protein kinases (human kinome) (Homo sapiens, UniProt P11802) (P11802 whole entry): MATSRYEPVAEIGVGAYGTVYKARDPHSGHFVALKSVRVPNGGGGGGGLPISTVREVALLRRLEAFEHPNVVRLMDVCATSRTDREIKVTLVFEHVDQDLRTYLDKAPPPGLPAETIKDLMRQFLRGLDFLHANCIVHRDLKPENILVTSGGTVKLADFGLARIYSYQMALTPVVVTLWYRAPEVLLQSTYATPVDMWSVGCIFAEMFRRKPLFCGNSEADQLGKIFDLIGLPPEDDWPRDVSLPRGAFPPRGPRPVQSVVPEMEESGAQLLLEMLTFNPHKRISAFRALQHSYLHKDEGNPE

[5] = molecular target: T1, protein kinases (human kinome) (Homo sapiens, UniProt O14976); conditions: for logFC GAK: GAK (O14976)
T1 sequence (O14976 1-1311): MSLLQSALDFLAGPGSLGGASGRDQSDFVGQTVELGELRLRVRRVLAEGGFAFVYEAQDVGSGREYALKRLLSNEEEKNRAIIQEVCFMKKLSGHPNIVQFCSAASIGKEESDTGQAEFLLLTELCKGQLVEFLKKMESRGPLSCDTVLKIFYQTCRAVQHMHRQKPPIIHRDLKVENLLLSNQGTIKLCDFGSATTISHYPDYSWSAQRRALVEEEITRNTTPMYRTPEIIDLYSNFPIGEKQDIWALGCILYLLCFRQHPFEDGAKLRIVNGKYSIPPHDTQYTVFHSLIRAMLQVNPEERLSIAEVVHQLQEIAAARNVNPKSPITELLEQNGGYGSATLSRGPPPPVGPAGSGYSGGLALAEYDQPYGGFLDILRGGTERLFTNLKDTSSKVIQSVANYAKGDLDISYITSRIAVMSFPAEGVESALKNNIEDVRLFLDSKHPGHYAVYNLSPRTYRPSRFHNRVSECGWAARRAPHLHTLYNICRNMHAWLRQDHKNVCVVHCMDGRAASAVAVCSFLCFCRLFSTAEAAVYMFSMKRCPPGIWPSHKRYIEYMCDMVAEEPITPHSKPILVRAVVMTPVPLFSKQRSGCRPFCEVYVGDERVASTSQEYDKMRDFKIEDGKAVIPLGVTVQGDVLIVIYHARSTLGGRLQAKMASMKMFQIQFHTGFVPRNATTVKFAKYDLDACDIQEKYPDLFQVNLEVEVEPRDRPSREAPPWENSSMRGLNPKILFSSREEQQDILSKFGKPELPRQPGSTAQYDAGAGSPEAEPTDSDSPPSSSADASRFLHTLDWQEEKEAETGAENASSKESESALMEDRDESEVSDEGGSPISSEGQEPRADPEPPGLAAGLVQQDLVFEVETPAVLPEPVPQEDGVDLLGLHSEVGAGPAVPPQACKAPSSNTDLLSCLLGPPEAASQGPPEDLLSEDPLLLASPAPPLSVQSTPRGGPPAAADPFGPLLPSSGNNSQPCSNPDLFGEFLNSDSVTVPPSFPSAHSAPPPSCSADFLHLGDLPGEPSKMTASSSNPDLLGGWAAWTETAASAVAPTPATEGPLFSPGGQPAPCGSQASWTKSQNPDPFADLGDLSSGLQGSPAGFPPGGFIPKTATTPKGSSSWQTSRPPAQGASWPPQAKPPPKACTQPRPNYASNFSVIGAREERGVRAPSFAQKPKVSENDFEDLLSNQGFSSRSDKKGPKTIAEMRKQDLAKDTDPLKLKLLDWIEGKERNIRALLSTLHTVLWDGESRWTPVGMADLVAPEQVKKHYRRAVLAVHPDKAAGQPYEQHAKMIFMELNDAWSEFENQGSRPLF

[6] = molecular target: protein kinases (human kinome) (Homo sapiens, UniProt P51451); conditions: for logFC BLK: BLK (P51451), direction down; for logFC of BLK: BLK P51451, experiment wp016; for logFC of BLK (P51451): down
Chain of protein kinases (human kinome) (Homo sapiens, UniProt P51451) (P51451 whole entry): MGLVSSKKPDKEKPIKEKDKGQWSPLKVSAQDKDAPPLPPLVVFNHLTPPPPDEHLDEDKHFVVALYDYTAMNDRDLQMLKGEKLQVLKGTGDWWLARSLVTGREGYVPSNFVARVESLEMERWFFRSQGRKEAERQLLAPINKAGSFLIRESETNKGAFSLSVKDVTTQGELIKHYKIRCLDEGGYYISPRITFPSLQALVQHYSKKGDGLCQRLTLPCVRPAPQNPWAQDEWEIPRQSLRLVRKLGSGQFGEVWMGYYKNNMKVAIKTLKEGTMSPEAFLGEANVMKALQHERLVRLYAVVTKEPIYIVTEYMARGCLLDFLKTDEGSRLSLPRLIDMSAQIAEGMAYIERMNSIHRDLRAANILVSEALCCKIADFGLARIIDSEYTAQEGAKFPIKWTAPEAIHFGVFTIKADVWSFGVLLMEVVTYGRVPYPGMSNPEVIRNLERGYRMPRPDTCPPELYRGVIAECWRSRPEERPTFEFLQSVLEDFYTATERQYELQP

Chain of protein kinases (human kinome) (Homo sapiens, UniProt P30291) (P30291 whole entry): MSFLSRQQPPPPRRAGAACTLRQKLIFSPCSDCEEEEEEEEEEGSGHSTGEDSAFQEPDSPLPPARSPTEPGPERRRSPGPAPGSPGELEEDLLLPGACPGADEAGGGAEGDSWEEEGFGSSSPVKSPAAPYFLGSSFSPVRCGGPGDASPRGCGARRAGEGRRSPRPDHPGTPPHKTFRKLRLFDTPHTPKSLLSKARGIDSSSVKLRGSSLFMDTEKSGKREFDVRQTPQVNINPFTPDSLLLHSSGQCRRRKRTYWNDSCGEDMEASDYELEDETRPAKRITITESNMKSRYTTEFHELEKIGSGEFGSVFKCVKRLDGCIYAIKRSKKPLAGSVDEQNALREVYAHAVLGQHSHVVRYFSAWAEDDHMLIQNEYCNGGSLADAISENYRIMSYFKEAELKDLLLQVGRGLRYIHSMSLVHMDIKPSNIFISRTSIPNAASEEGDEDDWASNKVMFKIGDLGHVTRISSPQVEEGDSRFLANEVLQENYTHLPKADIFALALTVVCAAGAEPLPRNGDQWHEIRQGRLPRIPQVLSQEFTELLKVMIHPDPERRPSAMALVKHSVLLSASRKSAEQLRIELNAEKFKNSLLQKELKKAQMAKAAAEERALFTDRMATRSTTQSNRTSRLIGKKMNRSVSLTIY

CC(C)S(=O)(=O)c1ccccc1Nc1nc(Nc2ccc(N3CCN(CCOCCNC(=O)CNc4cccc5c4C(=O)N(C4CCC(=O)NC4=O)C5=O)CC3)cc2)ncc1Cl (stereo not shown) [SK.3.91]
logFC WEE1 (P30291-1) ([1]; Experiment wp160, 2 hr): −1.201
logFC WEE1 (P30291-1) ([1]; Experiment wp172): −0.6853
logFC of WEE1 ([1]; experiment wp103): −1.371
logFC of WEE1 ([1]; experiment wp105): −1.229
logFC of WEE1 ([1]; experiment wp107): −2.329
logFC of WEE1 ([1]; experiment wp133, 1 hr): −0.4866
logFC of WEE1 ([1]; experiment wp133, 2 hr): −1.21
logFC of WEE1 ([1]; experiment wp133, 4 hr): −2.314
logFC of WEE1 ([1]; experiment wp160, 1 hr): −0.5503
logFC of WEE1 ([1]; experiment wp160, 2 hr): −1.201
logFC of WEE1 ([1]; experiment wp160, 4 hr): −1.994
logFC of WEE1 ([1]; experiment wp172): −0.6853
logFC WEE1 (P30291-1) ([1]; experiment wp016): −1.278
logFC WEE1 (P30291-1) ([1]; experiment wp016, 1 uM): −2.684
logFC WEE1 (P30291-1) ([1]; experiment wp103): −1.371
logFC WEE1 (P30291-1) ([1]; experiment wp105): −1.229
logFC WEE1 (P30291-1) ([1]; experiment wp107): −2.329
logFC WEE1 (P30291-1) ([1]; experiment wp133, 1 hr): −0.4866
logFC WEE1 (P30291-1) ([1]; experiment wp133, 2 hr): −1.21
logFC WEE1 (P30291-1) ([1]; experiment wp133, 4 hr): −2.314
logFC WEE1 (P30291-1) ([1]; experiment wp160, 1 hr): −0.5503
logFC WEE1 (P30291-1) ([1]; experiment wp160, 4 hr): −1.994
logFC of FER (P16591-1) ([2]; Experiment wp016, 1 uM): −3.321
logFC of FER (P16591-1) ([2]; Experiment wp016): −2.645
logFC of FER (P16591-1) ([2]; Experiment wp103): −2.81
logFC of FER (P16591-1) ([2]; Experiment wp105): −2.857
logFC of FER (P16591-1) ([2]; Experiment wp107): −2.657
logFC of FER (P16591-1) ([2]; Experiment wp133, 1 hr): −1.132
logFC of FER (P16591-1) ([2]; Experiment wp133, 2 hr): −2.153
logFC of FER (P16591-1) ([2]; Experiment wp133, 4 hr): −2.426
logFC of FER (P16591-1) ([2]; Experiment wp160, 1 hr): −0.8534
logFC of FER (P16591-1) ([2]; Experiment wp160, 2 hr): −1.88
logFC of FER (P16591-1) ([2]; Experiment wp160, 4 hr): −1.987
logFC of FER ([2]; experiment wp016): −2.646
logFC of FER ([2]; experiment wp016, 1 uM): −3.321
logFC of FER ([2]; experiment wp103): −2.81
logFC of FER ([2]; experiment wp105): −2.857
logFC of FER ([2]; experiment wp107): −2.657
logFC of FER ([2]; experiment wp133, 1 hr): −1.132
logFC of FER ([2]; experiment wp133, 2 hr): −2.153
logFC of FER ([2]; experiment wp133, 4 hr): −2.426
logFC of FER ([2]; experiment wp160, 1 hr): −0.8534
logFC of FER ([2]; experiment wp160, 2 hr): −1.88
logFC of FER ([2]; experiment wp160, 4 hr): −1.987
logFC AAK1 ([3]; AAK1 (Q2M218-1), experiment wp016, 1 uM, down): −1.114
logFC AAK1 ([3]; AAK1 (Q2M218-1), experiment wp016, down): −1.364
logFC AAK1 ([3]; AAK1 (Q2M218-1), experiment wp103, down): −0.7763
logFC AAK1 ([3]; AAK1 (Q2M218-1), experiment wp105, down): −1.575
logFC AAK1 ([3]; AAK1 (Q2M218-1), experiment wp107, down): −1.059
logFC AAK1 ([3]; AAK1 (Q2M218-1), experiment wp114, down): −0.8221
logFC AAK1 ([3]; AAK1 (Q2M218-1), experiment wp133, 2 hr, down): −0.5506
logFC AAK1 ([3]; AAK1 (Q2M218-1), experiment wp133, 4 hr, down): −1.105
logFC AAK1 ([3]; AAK1 (Q2M218-1), experiment wp160, 2 hr, down): −0.5153
logFC AAK1 ([3]; AAK1 (Q2M218-1), experiment wp160, 4 hr, down): −1.008
logFC AAK1 ([3]; AAK1 (Q2M218-1), experiment wp172, down): −0.9755
logFC AAK1 ([3]; AAK1, accession Q2M218-1, experiment wp016, 1 uM, direction of change down): −1.114
logFC AAK1 ([3]; AAK1, accession Q2M218-1, experiment wp016, direction of change down): −1.364
logFC AAK1 ([3]; AAK1, accession Q2M218-1, experiment wp103, direction of change down): −0.7763
logFC AAK1 ([3]; AAK1, accession Q2M218-1, experiment wp105, direction of change down): −1.575
logFC AAK1 ([3]; AAK1, accession Q2M218-1, experiment wp107, direction of change down): −1.059
logFC AAK1 ([3]; AAK1, accession Q2M218-1, experiment wp114, direction of change down): −0.8221
logFC AAK1 ([3]; AAK1, accession Q2M218-1, experiment wp133, 2 hr, direction of change down): −0.5506
logFC AAK1 ([3]; AAK1, accession Q2M218-1, experiment wp133, 4 hr, direction of change down): −1.105
logFC AAK1 ([3]; AAK1, accession Q2M218-1, experiment wp160, 2 hr, direction of change down): −0.5153
logFC AAK1 ([3]; AAK1, accession Q2M218-1, experiment wp160, 4 hr, direction of change down): −1.008
logFC AAK1 ([3]; AAK1, accession Q2M218-1, experiment wp172, direction of change down): −0.9755
logFC CDK4 (P11802) ([4]; Experiment wp160, 2 hr): −0.9104
logFC CDK4 (P11802) ([4]; experiment wp016): −1.161
logFC CDK4 (P11802) ([4]; experiment wp016, 1 uM): −1.429
logFC CDK4 (P11802) ([4]; experiment wp103): −1.029
logFC CDK4 (P11802) ([4]; experiment wp105): −0.7995
logFC CDK4 (P11802) ([4]; experiment wp107): −1.272
logFC CDK4 (P11802) ([4]; experiment wp114): −0.5605
logFC CDK4 (P11802) ([4]; experiment wp133, 2 hr): −0.7484
logFC CDK4 (P11802) ([4]; experiment wp133, 4 hr): −1.292
logFC CDK4 (P11802) ([4]; experiment wp160, 1 hr): −0.4329
logFC CDK4 (P11802) ([4]; experiment wp160, 4 hr): −1.353
logFC of GAK (O14976) ([5]; Experiment wp016, 1 uM, down): −0.3526
logFC of GAK (O14976) ([5]; Experiment wp016, down): −0.5011
logFC of GAK (O14976) ([5]; Experiment wp105, down): −0.3832
logFC GAK ([5]; direction down, experiment wp016): −0.5011
logFC GAK ([5]; direction down, experiment wp018, 1 uM): −0.3526
logFC GAK ([5]; direction down, experiment wp105): −0.3832
logFC GAK ([5]; direction down, experiment wp160, 4 hr): −0.3241
logFC GAK ([5]; experiment wp160, 4 hr, down): −0.3241
logFC BLK ([6]; experiment wp103): −1.625
logFC BLK ([6]; experiment wp107): −1.649
logFC BLK ([6]; experiment wp133, 1 hr): −0.3727
logFC BLK ([6]; experiment wp133, 2 hr): −0.8217
logFC BLK ([6]; experiment wp133, 4 hr): −1.49
logFC BLK ([6]; experiment wp160, 2 hr): −0.8744
logFC BLK ([6]; experiment wp160, 4 hr): −1.678
logFC of BLK [6]: −1.446
logFC of BLK ([6]; 1 uM): −1.977
logFC of BLK (P51451) ([6]; Experiment wp016, 1 uM): −1.977
logFC of BLK (P51451) ([6]; Experiment wp016): −1.446
logFC of BLK (P51451) ([6]; Experiment wp103): −1.625
logFC of BLK (P51451) ([6]; Experiment wp107): −1.649
logFC of BLK (P51451) ([6]; Experiment wp133, 1 hr): −0.3727
logFC of BLK (P51451) ([6]; Experiment wp133, 2 hr): −0.8217
logFC of BLK (P51451) ([6]; Experiment wp133, 4 hr): −1.49
logFC of BLK (P51451) ([6]; Experiment wp160, 2 hr): −0.8744
logFC of BLK (P51451) ([6]; Experiment wp160, 4 hr): −1.678
